Experimental data: the kinase profiling compilation of Christmann-Franck et al. (2016)

How the values were obtained:
Test in all cases: KINOMEscan competition binding
Details in all cases: compound 10.0 µM
EPHA5 (human) = EPHA5 (human) (UniProt P54756)
GSK3A (human) = GSK3A (human) (UniProt P49840)
[1] = molecular target: JAK2 JH1 catalytic (human) (UniProt O60674)
[2] = molecular target: JAK1 JH2 pseudokinase (human) (UniProt P23458)
FGFR1 (human) = FGFR1 (human) (UniProt P11362)
CDKL5 (human) = CDKL5 (human) (UniProt O76039)
CSNK1G1 (human) = CSNK1G1 (human) (UniProt Q9HCP0)
NIM1 (human) = NIM1 (human) (UniProt Q8IY84)
SIK2 (human) = SIK2 (human) (UniProt Q9H0K1)
AXL (human) = AXL (human) (UniProt P30530)
PIK3CB (human) = PIK3CB (human) (UniProt P42338)
PRKD1 (human) = PRKD1 (human) (UniProt Q15139)
DAPK2 (human) = DAPK2 (human) (UniProt Q9UIK4)
PKN1 (human) = PKN1 (human) (UniProt Q16512)
PLK4 (human) = PLK4 (human) (UniProt O00444)
RPS6KA1 KD2 (human) = RPS6KA1 KD2 (human) (UniProt Q15418)
PRKCH (human) = PRKCH (human) (UniProt P24723)
CDK17 (human) = CDK17 (human) (UniProt Q00537)
MAP3K11 (human) = MAP3K11 (human) (UniProt Q16584)
LYN (human) = LYN (human) (UniProt P07948)
MYO3A (human) = MYO3A (human) (UniProt Q8NEV4)
TIE1 (human) = TIE1 (human) (UniProt P35590)
KDR (human) = KDR (human) (UniProt P35968)
FLT1 (human) = FLT1 (human) (UniProt P17948)
ACVRL1 (human) = ACVRL1 (human) (UniProt P37023)
PRKX (human) = PRKX (human) (UniProt P51817)
[3] = test system: EGFR (human), P00533 [G719S]
PLK2 (human) = PLK2 (human) (UniProt Q9NYY3)
CDK14 (human) = CDK14 (human) (UniProt O94921)
TNK2 (human) = TNK2 (human) (UniProt Q07912)
MINK1 (human) = MINK1 (human) (UniProt Q8N4C8)
PIP4K2B (human) = PIP4K2B (human) (UniProt P78356)
TNK1 (human) = TNK1 (human) (UniProt Q13470)
ALK (human) = ALK (human) (UniProt Q9UM73)
[4] = test system: EIF2AK4 KD2 (human), Q9P2K8 [S808G]
CSNK2A2 (human) = CSNK2A2 (human) (UniProt P19784)
MAP2K5 (human) = MAP2K5 (human) (UniProt Q13163)
[5] = test system: PIK3CA (human), P42336 [I800L]
CDKL1 (human) = CDKL1 (human) (UniProt Q00532)

Sequence of KDR (human) (P35968 whole entry, looked up): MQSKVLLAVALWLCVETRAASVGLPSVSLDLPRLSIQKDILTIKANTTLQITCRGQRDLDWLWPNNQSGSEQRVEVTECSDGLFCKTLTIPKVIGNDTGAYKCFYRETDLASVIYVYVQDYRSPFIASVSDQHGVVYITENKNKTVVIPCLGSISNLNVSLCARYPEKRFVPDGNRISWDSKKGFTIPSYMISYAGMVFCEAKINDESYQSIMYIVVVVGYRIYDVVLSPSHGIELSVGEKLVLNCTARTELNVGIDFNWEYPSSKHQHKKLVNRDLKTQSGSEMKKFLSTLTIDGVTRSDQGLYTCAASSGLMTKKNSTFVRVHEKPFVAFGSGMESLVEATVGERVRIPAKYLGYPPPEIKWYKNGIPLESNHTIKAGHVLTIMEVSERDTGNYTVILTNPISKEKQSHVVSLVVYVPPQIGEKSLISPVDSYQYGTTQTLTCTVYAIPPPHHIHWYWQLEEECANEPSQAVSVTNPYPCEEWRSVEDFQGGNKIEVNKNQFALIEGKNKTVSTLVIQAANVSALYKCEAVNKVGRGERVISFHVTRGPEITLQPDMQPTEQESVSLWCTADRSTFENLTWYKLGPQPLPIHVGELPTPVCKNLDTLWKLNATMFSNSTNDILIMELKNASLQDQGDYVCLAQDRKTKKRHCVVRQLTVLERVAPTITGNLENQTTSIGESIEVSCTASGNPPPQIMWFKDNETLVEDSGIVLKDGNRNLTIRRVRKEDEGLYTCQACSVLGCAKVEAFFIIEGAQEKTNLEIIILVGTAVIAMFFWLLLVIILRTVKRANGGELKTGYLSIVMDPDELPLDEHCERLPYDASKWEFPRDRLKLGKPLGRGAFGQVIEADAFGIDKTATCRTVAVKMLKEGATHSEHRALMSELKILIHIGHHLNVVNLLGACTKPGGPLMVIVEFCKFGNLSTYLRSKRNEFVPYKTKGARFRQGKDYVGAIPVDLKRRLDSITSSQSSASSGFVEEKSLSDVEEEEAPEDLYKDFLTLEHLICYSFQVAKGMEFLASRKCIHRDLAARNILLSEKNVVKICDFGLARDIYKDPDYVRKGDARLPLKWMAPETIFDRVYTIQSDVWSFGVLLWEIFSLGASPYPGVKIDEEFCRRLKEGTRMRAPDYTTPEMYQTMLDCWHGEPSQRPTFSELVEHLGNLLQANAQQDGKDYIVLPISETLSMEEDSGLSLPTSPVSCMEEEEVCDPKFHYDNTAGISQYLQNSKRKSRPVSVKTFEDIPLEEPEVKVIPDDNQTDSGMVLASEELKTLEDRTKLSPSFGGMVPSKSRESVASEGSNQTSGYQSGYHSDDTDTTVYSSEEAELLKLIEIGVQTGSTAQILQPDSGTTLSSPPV
Sequence of MYO3A (human) (Q8NEV4 whole entry, looked up): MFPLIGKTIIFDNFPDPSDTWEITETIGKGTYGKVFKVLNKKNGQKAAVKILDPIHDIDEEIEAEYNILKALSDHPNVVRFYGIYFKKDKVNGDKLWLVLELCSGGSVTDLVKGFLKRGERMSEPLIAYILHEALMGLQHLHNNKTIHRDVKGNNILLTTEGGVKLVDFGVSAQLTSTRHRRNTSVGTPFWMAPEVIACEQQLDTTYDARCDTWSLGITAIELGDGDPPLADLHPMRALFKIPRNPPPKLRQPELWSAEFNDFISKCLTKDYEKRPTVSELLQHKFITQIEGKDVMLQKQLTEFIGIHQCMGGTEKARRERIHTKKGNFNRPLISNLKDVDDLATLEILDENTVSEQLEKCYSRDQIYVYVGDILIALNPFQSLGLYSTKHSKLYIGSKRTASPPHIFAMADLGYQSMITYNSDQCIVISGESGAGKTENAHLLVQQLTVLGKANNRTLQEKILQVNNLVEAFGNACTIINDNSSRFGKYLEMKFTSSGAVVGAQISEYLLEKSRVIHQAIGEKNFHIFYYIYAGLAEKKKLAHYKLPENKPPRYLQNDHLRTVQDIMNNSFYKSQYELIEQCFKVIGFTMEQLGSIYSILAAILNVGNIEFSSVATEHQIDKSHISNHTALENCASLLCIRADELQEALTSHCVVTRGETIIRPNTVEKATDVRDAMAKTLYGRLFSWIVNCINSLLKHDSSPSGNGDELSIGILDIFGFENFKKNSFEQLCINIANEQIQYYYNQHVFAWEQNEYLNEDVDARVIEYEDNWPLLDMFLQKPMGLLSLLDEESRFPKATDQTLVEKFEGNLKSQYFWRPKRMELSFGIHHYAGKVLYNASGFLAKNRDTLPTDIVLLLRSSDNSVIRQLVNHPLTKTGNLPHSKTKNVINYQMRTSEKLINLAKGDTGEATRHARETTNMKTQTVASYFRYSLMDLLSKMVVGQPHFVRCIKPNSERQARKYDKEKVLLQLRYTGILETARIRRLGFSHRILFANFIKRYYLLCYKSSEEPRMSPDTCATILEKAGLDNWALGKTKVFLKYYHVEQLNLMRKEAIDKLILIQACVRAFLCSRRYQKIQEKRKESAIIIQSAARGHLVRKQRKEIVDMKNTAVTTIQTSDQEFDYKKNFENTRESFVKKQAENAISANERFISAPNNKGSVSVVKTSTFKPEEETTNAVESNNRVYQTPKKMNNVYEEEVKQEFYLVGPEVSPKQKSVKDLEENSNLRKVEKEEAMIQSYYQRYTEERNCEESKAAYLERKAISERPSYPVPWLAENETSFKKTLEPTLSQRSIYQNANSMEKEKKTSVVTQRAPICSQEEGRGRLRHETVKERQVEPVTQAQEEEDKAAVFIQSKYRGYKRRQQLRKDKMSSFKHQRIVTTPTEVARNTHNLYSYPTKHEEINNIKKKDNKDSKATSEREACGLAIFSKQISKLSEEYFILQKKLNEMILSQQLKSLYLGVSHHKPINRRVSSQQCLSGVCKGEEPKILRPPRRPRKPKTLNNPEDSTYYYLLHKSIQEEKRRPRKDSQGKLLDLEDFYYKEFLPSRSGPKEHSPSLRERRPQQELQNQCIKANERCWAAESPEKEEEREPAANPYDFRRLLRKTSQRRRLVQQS
Sequence of TNK1 (human) (Q13470 whole entry, looked up): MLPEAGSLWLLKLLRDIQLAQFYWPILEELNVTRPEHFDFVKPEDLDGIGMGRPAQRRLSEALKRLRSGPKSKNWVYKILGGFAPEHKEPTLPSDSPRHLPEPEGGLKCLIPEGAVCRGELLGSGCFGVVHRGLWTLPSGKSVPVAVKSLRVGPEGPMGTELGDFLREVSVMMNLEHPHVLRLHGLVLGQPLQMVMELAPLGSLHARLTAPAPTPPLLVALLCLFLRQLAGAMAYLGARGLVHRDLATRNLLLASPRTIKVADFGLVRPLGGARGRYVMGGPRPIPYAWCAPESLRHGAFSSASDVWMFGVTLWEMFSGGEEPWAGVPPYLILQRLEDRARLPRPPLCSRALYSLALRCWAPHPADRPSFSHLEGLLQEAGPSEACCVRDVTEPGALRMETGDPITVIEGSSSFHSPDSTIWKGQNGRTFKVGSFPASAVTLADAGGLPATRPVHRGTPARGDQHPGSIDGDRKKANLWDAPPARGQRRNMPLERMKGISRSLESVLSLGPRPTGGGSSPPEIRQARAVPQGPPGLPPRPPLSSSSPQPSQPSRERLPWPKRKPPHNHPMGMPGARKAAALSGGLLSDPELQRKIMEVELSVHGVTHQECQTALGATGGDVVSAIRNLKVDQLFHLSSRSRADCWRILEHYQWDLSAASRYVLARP
Sequence of PRKD1 (human) (Q15139 whole entry, looked up): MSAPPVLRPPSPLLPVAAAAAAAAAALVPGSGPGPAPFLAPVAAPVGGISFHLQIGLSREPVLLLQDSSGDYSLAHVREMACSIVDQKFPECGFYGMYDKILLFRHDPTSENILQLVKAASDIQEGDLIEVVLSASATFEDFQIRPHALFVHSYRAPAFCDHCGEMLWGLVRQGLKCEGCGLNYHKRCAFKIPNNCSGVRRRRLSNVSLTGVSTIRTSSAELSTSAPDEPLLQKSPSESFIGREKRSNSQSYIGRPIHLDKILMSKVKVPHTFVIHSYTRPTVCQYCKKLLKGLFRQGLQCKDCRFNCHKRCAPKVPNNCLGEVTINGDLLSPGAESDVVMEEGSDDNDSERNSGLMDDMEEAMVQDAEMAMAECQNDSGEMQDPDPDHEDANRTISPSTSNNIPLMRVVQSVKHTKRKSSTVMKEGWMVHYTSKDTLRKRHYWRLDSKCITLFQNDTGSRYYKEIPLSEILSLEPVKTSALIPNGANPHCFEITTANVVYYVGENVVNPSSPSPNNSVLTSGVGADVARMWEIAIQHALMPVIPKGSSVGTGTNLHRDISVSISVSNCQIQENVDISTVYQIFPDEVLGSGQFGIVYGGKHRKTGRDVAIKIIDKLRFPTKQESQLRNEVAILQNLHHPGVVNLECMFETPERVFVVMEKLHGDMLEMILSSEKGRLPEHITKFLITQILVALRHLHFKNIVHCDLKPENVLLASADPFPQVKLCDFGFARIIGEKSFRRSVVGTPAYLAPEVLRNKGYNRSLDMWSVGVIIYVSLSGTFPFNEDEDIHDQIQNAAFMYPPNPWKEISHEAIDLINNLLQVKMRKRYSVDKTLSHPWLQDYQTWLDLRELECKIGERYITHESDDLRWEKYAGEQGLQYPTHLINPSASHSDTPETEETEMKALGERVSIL
Sequence of LYN (human) (P07948 whole entry, looked up): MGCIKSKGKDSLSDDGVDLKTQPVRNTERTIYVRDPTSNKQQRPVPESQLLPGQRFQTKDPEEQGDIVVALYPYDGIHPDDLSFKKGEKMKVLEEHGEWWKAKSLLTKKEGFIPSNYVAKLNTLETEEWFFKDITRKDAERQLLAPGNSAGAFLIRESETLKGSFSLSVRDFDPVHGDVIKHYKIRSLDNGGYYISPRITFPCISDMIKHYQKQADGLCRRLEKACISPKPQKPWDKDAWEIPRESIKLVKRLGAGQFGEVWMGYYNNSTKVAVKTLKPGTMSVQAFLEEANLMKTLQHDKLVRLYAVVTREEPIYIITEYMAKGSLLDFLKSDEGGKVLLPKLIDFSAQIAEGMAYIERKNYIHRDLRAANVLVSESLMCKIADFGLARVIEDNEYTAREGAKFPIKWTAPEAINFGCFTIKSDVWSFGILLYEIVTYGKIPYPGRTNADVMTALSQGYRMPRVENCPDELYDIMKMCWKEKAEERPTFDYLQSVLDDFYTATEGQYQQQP

Structure (SMILES) | kinase still bound, per cent of control (EPHA5 (human)) [%] | kinase still bound, per cent of control (GSK3A (human)) [%] | kinase still bound, per cent of control [1] [%] | kinase still bound, per cent of control [2] [%] | kinase still bound, per cent of control (FGFR1 (human)) [%] | kinase still bound, per cent of control (CDKL5 (human)) [%] | kinase still bound, per cent of control (CSNK1G1 (human)) [%] | kinase still bound, per cent of control (NIM1 (human)) [%] | kinase still bound, per cent of control (SIK2 (human)) [%] | kinase still bound, per cent of control (AXL (human)) [%] | kinase still bound, per cent of control (PIK3CB (human)) [%] | kinase still bound, per cent of control (PRKD1 (human)) [%] | kinase still bound, per cent of control (PKN1 (human)) [%] | kinase still bound, per cent of control (PLK4 (human)) [%] | kinase still bound, per cent of control (RPS6KA1 KD2 (human)) [%] | kinase still bound, per cent of control (PRKCH (human)) [%] | kinase still bound, per cent of control (CDK17 (human)) [%] | kinase still bound, per cent of control (MAP3K11 (human)) [%] | kinase still bound, per cent of control (LYN (human)) [%] | kinase still bound, per cent of control (MYO3A (human)) [%] | further results
Cn1c(=O)n(-c2ccc(C(C)(C)C#N)cc2)c2c3cc(-c4cnc5ccccc5c4)ccc3ncc21 | 100 | 100 | 20 | 100 | 100 | 100 | 100 | 100 | 100 | 100 | 22 | 100 | 100 | 100 | 100 | 100 | 100 | 100 | 100 | 100 | kinase still bound, per cent of control (DAPK2 (human)): 100%; kinase still bound, per cent of control (TIE1 (human)): 100%; kinase still bound, per cent of control (KDR (human)): 100%; kinase still bound, per cent of control (FLT1 (human)): 100%; kinase still bound, per cent of control (ACVRL1 (human)): 100%; kinase still bound, per cent of control (PRKX (human)): 100%; kinase still bound, per cent of control [3]: 100%; kinase still bound, per cent of control (PLK2 (human)): 100%; kinase still bound, per cent of control (CDK14 (human)): 100%; kinase still bound, per cent of control (TNK2 (human)): 100%; kinase still bound, per cent of control (MINK1 (human)): 100%; kinase still bound, per cent of control (PIP4K2B (human)): 100%; kinase still bound, per cent of control (TNK1 (human)): 100%; kinase still bound, per cent of control (ALK (human)): 100%; kinase still bound, per cent of control [4]: 100%; kinase still bound, per cent of control (CSNK2A2 (human)): 100%
COc1cc(C(=O)NC2CCN(C)CC2)ccc1Nc1ncc2c(n1)N(C1CCCC1)CCC(=O)N2C(C)C | 100 | 100 | 100 | 100 | 100 | 100 | 100 | 100 | 100 | 100 | 100 | 100 | 100 | 100 | 100 | 100 | 100 | 100 | 100 | 100 | kinase still bound, per cent of control (DAPK2 (human)): 100%; kinase still bound, per cent of control (TIE1 (human)): 100%; kinase still bound, per cent of control (KDR (human)): 100%; kinase still bound, per cent of control (FLT1 (human)): 100%; kinase still bound, per cent of control (ACVRL1 (human)): 100%; kinase still bound, per cent of control (PRKX (human)): 100%; kinase still bound, per cent of control [3]: 100%; kinase still bound, per cent of control (PLK2 (human)): 100%; kinase still bound, per cent of control (CDK14 (human)): 100%; kinase still bound, per cent of control (TNK2 (human)): 100%; kinase still bound, per cent of control (MINK1 (human)): 100%; kinase still bound, per cent of control (PIP4K2B (human)): 100%; kinase still bound, per cent of control (TNK1 (human)): 100%; kinase still bound, per cent of control (ALK (human)): 100%; kinase still bound, per cent of control [4]: 100%; kinase still bound, per cent of control (CSNK2A2 (human)): 100%
CCC(=O)N1CCN(c2ccc(-n3c(=O)ccc4cnc5ccc(-c6cnc7ccccc7c6)cc5c43)cc2C(F)(F)F)CC1 | 100 | 93 | 65 | 76 | 96 | 100 | 100 | 84 | 23 | 46 | 65 | 99 | 92 | 100 | 100 | 92 | 97 | 69 | 79 | 100 | kinase still bound, per cent of control (MAP2K5 (human)): 100%; kinase still bound, per cent of control [5]: 0%; kinase still bound, per cent of control (CDKL1 (human)): 100%; kinase still bound, per cent of control (TIE1 (human)): 100%; kinase still bound, per cent of control (KDR (human)): 65%; kinase still bound, per cent of control (FLT1 (human)): 79%; kinase still bound, per cent of control (ACVRL1 (human)): 83%; kinase still bound, per cent of control (PRKX (human)): 83%; kinase still bound, per cent of control (PLK2 (human)): 85%; kinase still bound, per cent of control (CDK14 (human)): 99%; kinase still bound, per cent of control (TNK2 (human)): 51%; kinase still bound, per cent of control (MINK1 (human)): 19%; kinase still bound, per cent of control (PIP4K2B (human)): 100%; kinase still bound, per cent of control (TNK1 (human)): 6.8%; kinase still bound, per cent of control (ALK (human)): 80%; kinase still bound, per cent of control [4]: 99%; kinase still bound, per cent of control (CSNK2A2 (human)): 11%
OCCCNc1cc(-c2ccnc(Nc3cccc(Cl)c3)n2)ccn1 | 100 | 20 | 100 | 100 | 100 | 9.4 | 100 | 100 | 100 | 100 | 100 | 100 | 100 | 100 | 100 | 100 | 100 | 100 | 100 | 100 | kinase still bound, per cent of control (DAPK2 (human)): 100%; kinase still bound, per cent of control (TIE1 (human)): 100%; kinase still bound, per cent of control (KDR (human)): 100%; kinase still bound, per cent of control (FLT1 (human)): 100%; kinase still bound, per cent of control (ACVRL1 (human)): 100%; kinase still bound, per cent of control (PRKX (human)): 100%; kinase still bound, per cent of control [3]: 100%; kinase still bound, per cent of control (PLK2 (human)): 100%; kinase still bound, per cent of control (CDK14 (human)): 100%; kinase still bound, per cent of control (TNK2 (human)): 100%; kinase still bound, per cent of control (MINK1 (human)): 100%; kinase still bound, per cent of control (PIP4K2B (human)): 100%; kinase still bound, per cent of control (TNK1 (human)): 100%; kinase still bound, per cent of control (ALK (human)): 100%; kinase still bound, per cent of control [4]: 100%; kinase still bound, per cent of control (CSNK2A2 (human)): 100%
